Where a name gives a salt, the structure may show the parent alone. Read-outs that look alike come from different tables or passages of the source.
Legend:
[1] = tested on: MARV-GP/HIV-luc pseudovirus; experiment: microbe, parasite or virus in culture; format: cell-based; conditions: read-out: EC50 against the Marburg virus entering the host
[2] = tested on: EBOV-Zaire GP/HIV-luc pseudovirus; experiment: organism not typed; format: cell-based, Zaire ebolavirus; conditions: for EC50: HEK-293T, read-out: half-maximum effect concentration (EC50) against EBOV
[3] = tested on: LASV-GP/HIV-luc pseudovirus; experiment: organism not typed; format: cell-based; conditions: read-out: EC50 against the Lassa virus entering the host
[4] = tested on: EBOV-Zaire GP/HIV-luc pseudovirus; format: cell-based, Zaire ebolavirus

## COc1cc2c3cc1Oc1c(OC)c(OC)cc4c1[C@@H](Cc1ccc(O)c(c1)Oc1ccc(cc1)C[C@@H]3N(C)CC2)N(C)CC4 [berbamine dihydrochloride]
[1]
  EC50: 990 nM
[2]
  inhibition rate on the EBOV-Zaire GP/HIV-luc pseudovirus: over 80%
  EC50: 490 nM
[2]; 48 h
  EC50: 490 nM
293T cells
  effect on cell activity (CCK-8, OD 450 nm): no significant effect
[3]
  EC50: 2640 nM

## O=C1Nc2ccc(Cl)cc2[C@@](C#CC2CC2)(C(F)(F)F)O1 [efavirenz]
[4]
  inhibition effect on the virus when added at 6 h (TOA): still had an inhibition effect

From patent US12329754B2 (priority 2018, dated 2025)
